Experimental data published in ChEMBL document CHEMBL4330072, “Neuroprotective effects of a novel carnosine-hydrazide derivative on hippocampal CA1 damage after transient cerebral ischemia” (Eur J Med Chem, 2019).
The source made the active and inactive calls. The rule behind the calls is not given here.

Key:
[1] = Quenching activity of compound in pH 7.4 PBS assessed as 4-HNE consumption at 2 mmol/L after 1 hr by HPLC analysis; type: functional
[2] = Quenching activity of compound in pH 7.4 PBS assessed as 4-HNE consumption at 2 mmol/L after 30 mins by HPLC analysis relative to control; type: functional
[3] = test system: Meriones unguiculatus; test: (§1) Neuroprotective activity against BCCO-induced transient cerebral ischemia in mongolian gerbil hippocampal CA1 region assessed as increase in viable neurons at 100 mg/kg, ip administered immediately after BCCO treatment and measured after 7 days by hematoxylin and eosin staining-based light microscopic analysis; type: functional, organism-based
[4] = test system: Meriones unguiculatus; test: Neuroprotective activity against BCCO-induced transient cerebral ischemia in mongolian gerbil hippocampal CA1 region assessed as increase in Hsp70 activity at 20 mg/kg, ip administered 20 mins prior to BCCO treatment measured after 24 hrs by immunostaining analysis; type: functional, organism-based
[5] = test system: PC-12; test: Neuroprotective activity against 4-HNE-induced toxicity in rat PC12 cells preincubated for 30 mins followed by compound wash and 4-HNE addition measured after 24 hrs by MTT assay; type: functional, cell-based
[6] = test system: PC-12; test: Neuroprotective activity against 4-HNE-induced toxicity in rat PC12 cells at 30 mM preincubated for 30 mins followed by compound wash and 4-HNE addition measured after 24 hrs by MTT assay relative to control; type: functional
[7] = test system: Meriones unguiculatus; test: as §1, with “analysis relative to control” for “analysis”; type: functional
[8] = test system: PC-12; test: Cytotoxicity against rat PC12 cells at 1 to 50 mM after 30 mins by MTT assay; type: cell-based; conditions: pc-12, 0.5 h, 50000 µM
[9] = test system: Meriones unguiculatus; test: as §1, with “20” for “100”, “20 mins prior to” for “immediately after”, “analysis relative to control” for “analysis”; type: functional

Structure (SMILES): CC(=O)NNC(=O)[C@H](Cc1c[nH]cn1)NC(=O)CCN
- Activity [1]: Active

Structure (SMILES): NNC(=O)[C@@H](N)Cc1c[nH]cn1
- Activity [2]: 70%
- Activity [1]: Active
- Activity [3]: inactive

Structure (SMILES): CC(=O)NCCC(=O)N[C@@H](Cc1c[nH]cn1)C(=O)NN
- Activity [1]: Active

Structure (SMILES): CC(=O)NCCC(=O)N[C@@H](Cc1c[nH]cn1)C(=O)NNC(C)=O
- Activity [1]: Active

Structure (SMILES): NCCC(=O)N[C@@H](Cc1c[nH]cn1)C(=O)NN
- Activity [4]: Active
- Activity [5]: Dose-dependent effect
- Activity [6]: 100%
- Activity [7]: 40%
- Activity [2]: 90%
- Activity [8]: Non-Toxic
- Activity [1]: Active
- Activity [9]: >60%

Structure (SMILES): NCCC(=O)N[C@@H](Cc1c[nH]cn1)C(=O)O
- Activity [2]: 20%
- Activity [1]: Active
